# Test results from patent publication US12091425B2 (AMGEN INC., priority 2016, dated 2024).
# Molecular target: T1, Mcl-1/Bim interaction, recombinant human Mcl-1 (171-327) (Homo sapiens, UniProt Q07820)
# T1 construct: made in house
# Assay: Cell free Mcl-1: Bim Affinity Assay (Mcl-1 HTRF)
# Type: binding
# Details: TR-FRET, 0.1 nM Mcl-1 (171-327), 0.05 nM biotin-Bim (51-76)
# How it was run: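 Displacement of biotinylated Bim 51-76 peptide is followed by TR-FRET. Incubation runs overnight. Duplicate points are fitted with a four-parameter sigmoid to yield IC50.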
# T1 sequence (Q07820 171-327): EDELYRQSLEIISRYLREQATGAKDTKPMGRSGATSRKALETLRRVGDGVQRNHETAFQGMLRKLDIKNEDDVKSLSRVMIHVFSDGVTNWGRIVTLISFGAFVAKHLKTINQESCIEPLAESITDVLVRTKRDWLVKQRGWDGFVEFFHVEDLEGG
row,Structure (SMILES),IC50
1,"O=C1NS(=O)(=O)C(CCOC(F)(F)F)CC/C=C/[C@H](O)[C@@H]2CC[C@H]2CN2C[C@@]3(CCCc4cc(Cl)ccc43)COc3ccc1cc32 (single isomer, unassigned) [Example 1012]",0.698 nM
2,"O=C1NS(=O)(=O)[C@@H](CCOC(F)(F)F)CC/C=C/[C@H](O)[C@@H]2CC[C@H]2CN2C[C@@]3(CCCc4cc(Cl)ccc43)COc3ccc1cc32 (single isomer, unassigned) [Example 1013]",18.1 nM
3,"O=C1NS(=O)(=O)[C@H]2COC[C@H]2C/C=C/[C@H](O)[C@@H]2CC[C@H]2CN2C[C@@]3(CCCc4cc(Cl)ccc43)COc3ccc1cc32 (single isomer, unassigned) [Example 1029]",4.42 nM
4,"C[C@@H]1[C@H](C)/C=C/[C@H](O)[C@@H]2CC[C@H]2CN2C[C@@]3(CCCc4cc(Cl)ccc43)COc3ccc(cc32)C(=O)NS(=O)(=O)[C@H]1C (single isomer, unassigned) [Example 1044]",35.8 nM
5,"CC[C@@H]1CC/C=C/[C@@H](NC(C)=O)[C@@H]2CC[C@H]2CN2C[C@@]3(CCCc4cc(Cl)ccc43)COc3ccc(cc32)C(=O)NS1(=O)=O (single isomer, unassigned) [Example 1078]",0.557 nM
6,"CC[C@@H]1CC/C=C\[C@@H](NC(C)=O)[C@@H]2CC[C@H]2CN2C[C@@]3(CCCc4cc(Cl)ccc43)COc3ccc(cc32)C(=O)NS1(=O)=O (single isomer, unassigned) [Example 1079]",5.48 nM
7,"O=C1NS(=O)(=O)C[C@@H](CO)C/C=C/[C@@H](O)[C@@H]2CC[C@H]2CN2C[C@@]3(CCCc4cc(Cl)ccc43)COc3ccc1cc32 (single isomer, unassigned) [Example 1089]",0.874 nM
8,"O=C1NS(=O)(=O)C[C@H](CO)C/C=C/[C@@H](O)[C@@H]2CC[C@H]2CN2C[C@@]3(CCCc4cc(Cl)ccc43)COc3ccc1cc32 (single isomer, unassigned) [Example 1090]",2.77 nM
9,"C/C=C/C1CC(=O)[C@@H]2CC[C@H]2CN2C[C@@]3(CCCc4cc(Cl)ccc43)COc3ccc(cc32)C(=O)NS(=O)(=O)[C@H](C)[C@@H](C)C1 (stereo in doubt) [Example 350, (1S,3′R,6′R,9′R,11′S,12′R)-6-chloro-11′,12′-dimethyl-9′-((1E)-1-propen-1-yl)-3,4-dihydro-2H,7′H,15′H-spiro[naphthalene-1,22′-[20]oxa[13]thia[1,14]diazatetracyclo[14.7.2.0^3,6.0^19,24]pentacosa [16,18,24]triene]-7′,15′-dione 13′,13′-dioxide]",3.73 nM
10,"C/C=C/C1CC(=O)[C@@H]2CC[C@H]2CN2C[C@@]3(CCCc4cc(Cl)ccc43)COc3ccc(cc32)C(=O)NS(=O)(=O)[C@H](C)[C@@H](C)C1 (stereo in doubt) [Example 353, (1S,3′R,6′R,9′S,11′S,12′R)-6-chloro-11′,12′-dimethyl-9′-((1E)-1-propen-1-yl)-3,4-dihydro-2H,7′H,15′H-spiro[naphthalene-1,22′-[20]oxa[13]thia[1,14]diazatetracyclo[14.7.2.0^3,6.0^19,24]pentacosa [16,18,24]triene]-7′,15′-dione 13′,13′-dioxide]",9.09 nM
11,"CC[C@@H]1CC/C=C/C(NC(C)=O)[C@@H]2CC[C@H]2CN2C[C@@]3(CCCc4cc(Cl)ccc43)COc3ccc(cc32)C(=O)NS1(=O)=O (stereo in doubt) [Example 1076, N-((1S,3′R,6′R,7′R,8′E,12′R)-6-chloro-12′-ethyl-13′,13′-dioxido-15′-oxo-3,4-dihydro-2H-spiro[naphthalene-1,22′-[20]oxa[13]thia[1,14]diazatetracyclo[14.7.2.0^3,6.0^19,24]pentacosa[8,16,18,24]tetraen]-7′-yl)acetamide]",1.82 nM
12,"COC[C@H]1C/C=C/[C@H](OC)[C@@H]2CC[C@H]2CN2C[C@@]3(CCCc4cc(Cl)ccc43)COc3ccc(cc32)C(=O)NS(=O)(=O)[C@@H]1C [Example 2, (1S,3′R,6′R,7′S,8′E,11′R,12′R)-6-chloro-7′-methoxy-11′-(methoxymethyl)-12′-methyl-3,4-dihydro-2H,15′H-spiro[naphthalene-1,22′-[20]oxa[13]thia[1,14]diazatetracyclo[14.7.2.0^3,6.0^19,24]pentacosa [8,16,18,24]tetraen]-15′-one 13′,13′-dioxide]",6.85 nM
13,"CCN1CC/C=C/[C@H](OCC(=O)O)[C@@H]2CC[C@H]2CN2C[C@@]3(CCCc4cc(Cl)ccc43)COc3ccc(cc32)C(=O)NS1(=O)=O [Example 44, (((1S,3′R,6′R,7′S,8′E)-6-chloro-12′-ethyl-13′,13′-dioxido-15′-oxo-3,4-dihydro-2H-spiro[naphthalene-1,22′-[20]oxa[13]thia[1,12,14]triazatetracyclo[14.7.2.0^3,6.0^19,24]pentacosa[8,16,18,24]tetraen]-7′-yl)oxy)acetic Acid]",0.115 nM
14,CCN1CC/C=C/[C@H](OC)[C@@H]2CC[C@H]2CN2C[C@@]3(CCCc4cc(Cl)ccc43)COc3ccc(cc32)C(=O)NS1(=O)=O [Example 45],2.3 nM

# Same assay, conditions: cell free Mcl-1:Bim TR-FRET, recombinant human Mcl-1 (171-327)
row,Structure (SMILES),IC50
1,"CC(=O)N[C@@H]1CCCCCS(=O)(=O)NC(=O)c2ccc3c(c2)N(C[C@@H]2CC[C@H]21)C[C@@]1(CCCc2cc(Cl)ccc21)CO3 (single isomer, unassigned) [Example 935, N-((1S,3′R,6′R,7′R)-6-chloro-13′,13′-dioxido-15′-oxo-3,4-dihydro-2H-spiro[naphthalene-1,22′-[20]oxa[13]thia[1,14]diazatetracyclo[14.7.2.0^3,6.0^19,24]pentacosa [16,18,24]trien]-7′-yl)acetamide or N-((1S,3′R,6′R,7′S)-6-chloro-13′,13′-dioxido-15′-oxo-3,4-dihydro-2H-spiro[naphthalene-1,22′-[20]oxa[13]thia[1,14]diazatetracyclo[14.7.2.0^3,6.0^19,24]pentacosa [16,18,24]trien]-7′-yl)acetamide]",2.07 nM
2,"CC(C)C(=O)N[C@@H]1CCCCCS(=O)(=O)NC(=O)c2ccc3c(c2)N(C[C@@H]2CC[C@H]21)C[C@@]1(CCCc2cc(Cl)ccc21)CO3 (single isomer, unassigned) [Example 936]",4.74 nM
3,"O=C1NS(=O)(=O)CCCCC[C@@H](NC(=O)C2CC2)[C@@H]2CC[C@H]2CN2C[C@@]3(CCCc4cc(Cl)ccc43)COc3ccc1cc32 (single isomer, unassigned) [Example 937]",4.75 nM
4,"CS(=O)(=O)N[C@@H]1CCCCCS(=O)(=O)NC(=O)c2ccc3c(c2)N(C[C@@H]2CC[C@H]21)C[C@@]1(CCCc2cc(Cl)ccc21)CO3 (single isomer, unassigned) [Example 938]",5.94 nM
5,"O=C(CO)N[C@@H]1CCCCCS(=O)(=O)NC(=O)c2ccc3c(c2)N(C[C@@H]2CC[C@H]21)C[C@@]1(CCCc2cc(Cl)ccc21)CO3 (single isomer, unassigned) [Example 939]",6.67 nM
6,"CC(=O)N(C)[C@H]1CCCCCS(=O)(=O)NC(=O)c2ccc3c(c2)N(C[C@@H]2CC[C@H]21)C[C@@]1(CCCc2cc(Cl)ccc21)CO3 (single isomer, unassigned) [Example 940]",18.6 nM
7,"CC(=O)N(C)[C@@H]1CCCCCS(=O)(=O)NC(=O)c2ccc3c(c2)N(C[C@@H]2CC[C@H]21)C[C@@]1(CCCc2cc(Cl)ccc21)CO3 (single isomer, unassigned) [Example 941]",8.33 nM
8,"CN(C(=O)C1CC1)C1CCCCCS(=O)(=O)NC(=O)c2ccc3c(c2)N(CC2CCC21)CC1(CCCc2cc(Cl)ccc21)CO3 (single isomer, unassigned) [Example 942]",36.4 nM
9,"CN(C(=O)C1CC1)[C@@H]1CCCCCS(=O)(=O)NC(=O)c2ccc3c(c2)N(C[C@@H]2CC[C@H]21)C[C@@]1(CCCc2cc(Cl)ccc21)CO3 (single isomer, unassigned) [Example 943]",16.2 nM
10,"O=C1NS(=O)(=O)[C@H]2CCN(C2)C(=O)CC[C@@H]2CC[C@H]2CN2C[C@@]3(CCCc4cc(Cl)ccc43)COc3ccc1cc32 (single isomer, unassigned) [Example 946]",4.15 nM
11,"O=C1NS(=O)(=O)CCC[C@@H]2C[C@H]2[C@H](O)[C@@H]2CC[C@H]2CN2C[C@@]3(CCCc4cc(Cl)ccc43)COc3ccc1cc32 (single isomer, unassigned) [Example 950]",1.49 nM
12,"C[C@@H]1CC[C@@H]2C[C@H]2[C@H](O)[C@@H]2CC[C@H]2CN2C[C@@]3(CCCc4cc(Cl)ccc43)COc3ccc(cc32)C(=O)NS1(=O)=O (single isomer, unassigned) [Example 951]",13.1 nM
13,"O=C1NS(=O)(=O)CCOCCC[C@@H]2CC[C@H]2CN2C[C@@]3(CCCc4ccccc43)COc3ccc1cc32 (stereo in doubt) [Example 824, (3S,6R,22S)-3′,4′-dihydro-2′H,15H-spiro[10,20-dioxa-13-thia-1,14-diazatetracyclo[14.7.2.0^3,6.^019,24]pentacosa-16,18,24-triene-22,1′-naphthalen]-15-one 13,13-dioxide]",20.1 nM
14,"O=C1NS(=O)(=O)CCOC/C=C/C2CCC2CN2C[C@@]3(CCCc4cc(Cl)ccc43)COc3ccc1cc32 (stereo in doubt) [Example 826, (3S,6R,7E,22S)-6′-chloro-3′,4′-dihydro-2′H,15H-spiro[10,20-dioxa-13-thia-1,14-diazatetracyclo[14.7.2.0^3,6.0^19,24]pentacosa-7,16,18,24-tetraene-22,1′-naphthalen]-15-one 13,13-dioxide]",10.5 nM
15,"O=C1NS(=O)(=O)CCOCCCC2CCC2CN2C[C@@]3(CCCc4cc(Cl)ccc43)COc3ccc1cc32 (stereo in doubt) [Example 827, (3S,6R,22S)-6′-chloro-3′,4′-dihydro-2′H,15H-spiro[10,20-dioxa-13-thia-1,14-diazatetracyclo[14.7.2.0^3,6.0^19,24]pentacosa-16,18,24-triene-22,1′-naphthalen]-15-one 13,13-dioxide]",3.54 nM
